Some test systems named below: CAKI-1 renal; DMS 114 small cell lung; EKVX NSCLC; HCC-2998 colon; HT29 colon; M19-MEL melanoma; SF-295 CNS; SK-MEL-28 melanoma; SN12C renal; SNB-75 CNS; UO-31 renal; MCF7 breast; NCI/ADR-RES ovarian; PC-3 prostate.
Common to all, as to assay: inhibition of tumour cell growth, NCI panel, 48 h

Each structure is given as a SMILES string.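 Protocol summary: plate cells (96-well), add compound at 5 concentrations, incubate 48 h, interpolate endpoints linearly. TGI: concentration producing complete growth inhibition.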 Where only a bound is given, the exact number is not on record here.

The results in this text go back to PubChem BioAssay (NCI).

As for `O=C1CSC(/C(=C/c2ccccc2)c2nc3ccccc3[nH]2)=N1`, the TGI in the assay with CAKI-1 renal, with DMS 114 small cell lung, in the assay on EKVX NSCLC, in the assay with HCC-2998 colon, in the assay on HT29 colon and in the assay with M19-MEL melanoma was above 100 µM in each case. The TGI in the assay with SF-295 CNS was above 100 µM; in the assay with SK-MEL-28 melanoma, above 100 µM; with SN12C renal, above 100 µM; in the assay with SNB-75 CNS, 50.7 µM; in the assay on UO-31 renal, above 100 µM.

As for `CC1(c2cccc3c2C2(O)C=CC4(CCC32)OCCO4)OCCO1` (stereo unspecified), the TGI with CAKI-1 renal, in the assay on DMS 114 small cell lung, in the assay on EKVX NSCLC, in the assay on HCC-2998 colon, with HT29 colon and in the assay with M19-MEL melanoma was above 100 µM throughout. In addition, the TGI in the assay with SF-295 CNS, in the assay on SK-MEL-28 melanoma, in the assay on SN12C renal, with SNB-75 CNS and in the assay with UO-31 renal was above 100 µM throughout.

`O=C(CC(=O)C(=O)Nc1ccccc1)CC(c1ccccc1)c1c(O)c2ccccc2oc1=O` (stereo unspecified): the TGI in the assay with CAKI-1 renal, in the assay on DMS 114 small cell lung, in the assay on EKVX NSCLC, with HCC-2998 colon, with HT29 colon and in the assay on M19-MEL melanoma was above 100 µM in each case. Besides, the TGI in the assay with SF-295 CNS, with SK-MEL-28 melanoma, in the assay on SNB-75 CNS and in the assay on UO-31 renal was above 100 µM in each case.

In the case of `COc1ccc(N(C)CN(C)c2nc(N(C)C)nc(N(C)C)n2)cc1`, the TGI in the assay with CAKI-1 renal, with DMS 114 small cell lung, in the assay on EKVX NSCLC, in the assay on HT29 colon, with M19-MEL melanoma and in the assay on SF-295 CNS was above 100 µM in each case. For the same compound, the TGI in the assay with SK-MEL-28 melanoma, with SN12C renal, with SNB-75 CNS and in the assay with UO-31 renal was above 100 µM throughout.

`CC1=CCC2(C#N)CCC1C2O` (stereo unspecified): the TGI with CAKI-1 renal, with DMS 114 small cell lung, in the assay with EKVX NSCLC, in the assay on HCC-2998 colon, in the assay with HT29 colon and in the assay with M19-MEL melanoma was above 100 µM throughout. Moreover, the TGI in the assay on SF-295 CNS, in the assay on SK-MEL-28 melanoma, with SN12C renal, in the assay with SNB-75 CNS and with UO-31 renal was above 100 µM in each case.

For the compound `COC(=O)C1CC(=O)CCC1c1ccccc1` (stereo unspecified), the TGI in the assay on CAKI-1 renal, in the assay with DMS 114 small cell lung, with EKVX NSCLC, in the assay with HCC-2998 colon, with HT29 colon and in the assay on M19-MEL melanoma was above 100 µM each time. The TGI with SF-295 CNS, with SK-MEL-28 melanoma, with SN12C renal, in the assay with SNB-75 CNS and in the assay on UO-31 renal was above 100 µM in each case.

As to `C#CCSc1nc(N)c2ncn(C3OC(CO)C(O)C3O)c2n1` (stereo unspecified), the TGI with DMS 114 small cell lung, in the assay with EKVX NSCLC, in the assay with HCC-2998 colon, in the assay with HT29 colon, in the assay on M19-MEL melanoma and with SF-295 CNS was above 100 µM throughout. The TGI in the assay on SK-MEL-28 melanoma, in the assay with SN12C renal and with UO-31 renal was above 100 µM each time.

Regarding `COc1ccc(-c2cnoc2-c2ccc(OC)c(OC)c2)cc1OC`, the TGI is above 68.1 µM in the assay on CAKI-1 renal; 2.23 µM in the assay with DMS 114 small cell lung; 20.7 µM in the assay with EKVX NSCLC; 11.1 µM in the assay with HT29 colon; 11.3 µM with M19-MEL melanoma; 4.27 µM in the assay on SF-295 CNS. Also, the TGI is above 21.9 µM with SK-MEL-28 melanoma, 33.7 µM with SN12C renal, 6.53 µM with SNB-75 CNS and 41.6 µM in the assay with UO-31 renal.

With `CC12CCC([C@H](N3CCOCC3)/C1=N\OCCN1CCCC1)C2(C)C` (stereo partly specified), the TGI with CAKI-1 renal, in the assay with DMS 114 small cell lung, in the assay with EKVX NSCLC, in the assay on HCC-2998 colon, in the assay with HT29 colon and in the assay with M19-MEL melanoma was above 100 µM in each case. Further, the TGI in the assay with SF-295 CNS, in the assay with SK-MEL-28 melanoma, with SN12C renal, in the assay on SNB-75 CNS and with UO-31 renal was above 100 µM throughout.

For `O=C(C/C(=N\NC(=O)C[n+]1ccccc1)C(=O)Nc1nc2ccc([N+](=O)[O-])cc2s1)CC(c1ccccc1)c1c(O)c2ccccc2oc1=O` (stereo unspecified), the TGI in the assay on CAKI-1 renal, with DMS 114 small cell lung, with EKVX NSCLC, in the assay on HCC-2998 colon, in the assay on HT29 colon and with M19-MEL melanoma was above 100 µM each time. Also, the TGI in the assay with SF-295 CNS, with SK-MEL-28 melanoma, with SN12C renal and in the assay on UO-31 renal was above 100 µM in each case.

For the compound `C=CCC1C(=O)C(C(=O)OC)N2CCc3c([nH]c4ccccc34)C12` (stereo unspecified), the TGI in the assay on CAKI-1 renal, in the assay on DMS 114 small cell lung, in the assay on EKVX NSCLC, in the assay with HCC-2998 colon, with HT29 colon and in the assay with M19-MEL melanoma was above 100 µM in each case. The TGI in the assay on SF-295 CNS, in the assay on SK-MEL-28 melanoma, in the assay with SN12C renal and in the assay with UO-31 renal was above 100 µM each time.

As for `CC(=O)OCCOCNC(=S)N/N=C/c1ccc2ccccc2n1`, the TGI in the assay on DMS 114 small cell lung was 71.3 µM; in the assay on EKVX NSCLC, above 100 µM; in the assay on HCC-2998 colon, above 100 µM; in the assay on HT29 colon, above 100 µM; in the assay with M19-MEL melanoma it was above 100 µM; in the assay with SF-295 CNS, above 100 µM. The TGI in the assay on SK-MEL-28 melanoma, in the assay with SN12C renal, in the assay with SNB-75 CNS and with UO-31 renal was above 100 µM each time.

For the compound `Clc1cc(OCc2nn3c(Cc4ccccc4)nnc3s2)ccc1OCc1nn2c(Cc3ccccc3)nnc2s1`, the TGI with CAKI-1 renal was 99.6 µM; in the assay with EKVX NSCLC, 66.2 µM; in the assay with HCC-2998 colon, above 100 µM; in the assay on HT29 colon, above 100 µM; in the assay with MCF7 breast it was above 100 µM; in the assay on NCI/ADR-RES ovarian, above 100 µM. The TGI in the assay on PC-3 prostate is above 100 µM; with SF-295 CNS it was 63.9 µM; with SK-MEL-28 melanoma, above 100 µM; in the assay on SN12C renal, above 100 µM; in the assay with SNB-75 CNS, 39 µM; in the assay on UO-31 renal, above 100 µM.
